From patent publication US12492373B2, “Production method for nerve tissue” (Racthera Co., Ltd., priority 2014, dated 2025)

Legend:
[1] = tested on: human iPS cells (1231A3 strain); assay: Immunostaining for pluripotent stem cell marker Oct3/4 after preconditioning; type: cell-based; settings: 1 day; SB431542 5 μM, LDN193189 100 nM, SAG 300 nM, or SB431542 5 μM and LDN193189 100 nM; positive = intensity not less than 2 times background
Protocol: Human iPS cells (1231A3 strain) were subjected to feeder-free culturing according to the method described in Example 1 in StemFit medium until one day before subconfluence. The human iPS cells one day before subconfluence were subjected to feeder-free culturing in the presence of SB431542 (TGFβR inhibitor, 5 μM), LDN193189 (BMPR inhibitor, 100 nM), SAG (Shh activating substance, 300 nM), or TGFβR inhibitor and BMPR inhibitor (SB431542 5 μM, and LDN193189 100 nM) (step 1: preconditioning treatment), or in the absence thereof (step 1: without preconditioning) for 1 day. The obtained cells were each fixed with 4% para-formaldehyde, and immunostaining for Oct3/4, which is one of the pluripotent stem cell markers, was performed and the immunostained cells were subjected to bright field observation and fluorescence image observation under an inverted fluorescence microscope (BIOREVO, KEYENCE).

[2] = tested on: human iPS cells (1231A3 strain); assay: Neural tissue / neuroepithelium formation in cell aggregates, bright field observation; type: cell-based; settings: for cell aggregate growth and neuroepithelium formation: step 1 for 1 day: SB431542 5 μM or LDN193189 100 nM, both U-bottom plate and F-bottom culture dish, day 19
Protocol: The above human iPS cells were treated with the cell dispersion solution by using TrypLE Select (Life Technologies), further dispersed into single cells by pipetting operation, and the above human iPS cells dispersed into single cells were suspended in 100 μl of a serum-free medium at 1.2×10^4 cells per well of a non-cell-adhesive 96-well culture plate ([…], manufactured by SUMITOMO BAKELITE), and subjected to suspension culturing at 37° C., 5% CO2. As the serum-free medium (gfCDM+KSR) therefor, a serum-free medium which is a 1:1 mixture of F-12 medium and IMDM medium supplemented with 10% KSR, 450 μM 1-monothioglycerol, 1× Chemically defined lipid concentrate was used. At the time of the start of suspension culturing (day 0 after the start of suspension culturing, start of step 2), Y27632 (final concentration 20 μM) was added to the above serum-free medium. By day 2 after the start of suspension culturing, cell aggregates were formed under both conditions with preconditioning and conditions without preconditioning (step 2 completed, step 3 start). On day 3 after the start of suspension culturing, a serum-free medium (50 μl) free of Y27632 was added. On day 6 or later after the start of suspension culturing, a half amount of the medium was changed to the above serum-free medium free of Y27632 once per 2-4 days. In the half-medium change operation, a half volume, namely 75 μl, of the medium in the culture vessel was discarded, the above fresh serum-free medium (75 μl) was added to make the total medium amount 150 μl. […]
At the time of the start of suspension culturing (day 0 after the start of suspension culturing, start of step 2), the cells were cultured under the following 2 conditions including condition 1 and condition 2. As condition 1(+SAG), at the time of the start of suspension culturing, Y27632 (final concentration 20 μM) and SAG (Shh signal transduction pathway activating substance, 300 nM) were added to the above serum-free medium. As condition 2(−SAG), at the time of the start of suspension culturing, Y27632 (final concentration 20 μM) was added to the above serum-free medium and SAG was not added. By day 2 after the start of suspension culturing, cell aggregates were formed (step 2 completed, step 3 start) under both conditions. On day 3 after the start of suspension culturing, a medium (50 μl) free of Y27632, SAG and containing human recombinant BMP4 (manufactured by R&D) was added such that the final concentration of exogenous human recombinant BMP4 was 1.5 nM (55 ng/ml). On day 6 after the start of suspension culturing, a half amount of the medium was changed with a serum-free medium free of Y27632, SAG and human recombinant BMP4. Thereafter, a half amount of the medium was changed, once every 2-4 days, with the above serum-free medium free of Y27632, SAG, and human recombinant BMP4.
The thus-prepared cells were subjected to bright field observation on day 18 after the start of suspension culturing under an inverted microscope (KEYENCE) (FIG. 15).
At the time of the start of suspension culturing (day 0 after the start of suspension culturing, start of step 2), the cells were cultured under the following 2 conditions including condition 1 and condition 2. As condition 1(+SAG), at the time of the start of suspension culturing, Y27632 (final concentration 20 μM) and SAG (Shh signal transduction pathway activating substance, final concentration 30 nM) were added to the above serum-free medium. As condition 2(−SAG), at the time of the start of suspension culturing, Y27632 (final concentration 20 μM) was added to the above serum-free medium and SAG was not added. By day 2 after the start of suspension culturing, cell aggregates were formed under both conditions (step 2 completed, step 3 start). […]

[3] = LDN193189 100 nM 1 day in step 1, day 23
[4] = step 1 for 1 day: SB431542 5 μM, LDN193189 100 nM or SAG 300 nM, SAG 300 nM in step 2, with or without BMP4 1.5 nM in step 3, day 23

Compound: c1ccc2c(-c3cnn4cc(-c5ccc(N6CCNCC6)cc5)cnc34)ccnc2c1 [LDN193189, 4-[6-(4-piperazin-1-ylphenyl)pyrazolo[1,5-a]pyrimidin-3-yl]quinoline]
- Oct3/4 immunostaining of preconditioned cells [1]: Oct3/4-positive
- cell aggregate containing a neural tissue (maintained, neural tissue not less than 10%) [2, 3]: about 100%
- cell aggregate with a bad form (collapsed, neural tissue not more than 3%) [2, 3]: about 0%
- cell aggregate with a medium level form (maintained, neural tissue not more than 10%) [2, 3]: about 0%
- neural tissue formation in step 3 [2, 3]: a neural tissue having a neuroepithelial structure was formed
- cell aggregate growth and neuroepithelium formation ([2]; SAG 300 nM in step 2): a cell aggregate grew and neuroepithelium was formed
- cell aggregate and neural tissue formation [2, 4]: a neural tissue can be formed efficiently

Compound: CNC1CCC(N(Cc2cccc(-c3ccncc3)c2)C(=O)c2sc3ccccc3c2Cl)CC1 (centres unmarked) [SAG]
- Oct3/4 immunostaining of preconditioned cells [1]: Oct3/4-positive
- cell aggregate and neural tissue formation ([2]; step 1: SAG 300 nM for 24-144 hr, co-presence of A83-01 0.5 μM for the last 24 hr, SAG 30 nM added or not in step 2, day 16): a neural tissue could be formed efficiently
- cell aggregate and neural tissue formation ([2]; step 1: SAG 300 nM for 48 or 72 hr, or A83-01 0.5 μM and SAG 300 nM for 24, 48 or 72 hr, SAG 30 nM added or not added in step 2, BMP4 1.5 nM on day 3, day 17): a neural tissue can be formed efficiently
- cell aggregate and neural tissue formation [2, 4]: a neural tissue can be formed efficiently

Compound: NC(=O)c1ccc(-c2nc(-c3ccc4c(c3)OCO4)c(-c3ccccn3)[nH]2)cc1 [SB431542, 4-(5-benzol[1,3]dioxol-5-yl-4-pyridin-2-yl-1H-imidazol-2-yl)-benzamide]
- Oct3/4 immunostaining of preconditioned cells [1]: Oct3/4-positive
- cell aggregate growth and neuroepithelium formation ([2]; SAG 300 nM in step 2): a cell aggregate grew and neuroepithelium was formed
- cell aggregate and neural tissue formation [2, 4]: a neural tissue can be formed efficiently
